Several values for one entry are separate records, joined by “and”; a condition that tells them apart may be missing. Identical values can stand only once.
What was measured:
[1] = system: Human Immunodeficiency Virus; assay: Anti-HIV testing in cell culture: inhibition of cell-to-cell transmission of HIV measured as p24 protein production; format: cell-based; conditions: for MEAN P24 value: mean of three tests; for % VIRAL CONCENTRATION: relative to 0.0 μM = 100.0; for P24 value as measurement of HIV concentration: separate efficacy tests (samples 1-3)
Description: Testing was performed independently at the NIH using standard testing protocol.

Sprague-Dawley rats = assay: In vivo toxicity study in rats, oral administration (gavage); conditions: increasing amounts up to 2 g/kg body weight
Description: (b) Oral Administration: Sprague-Dawley rats weighing approximately 250 g were orally gavaged with increasing amounts of polysulfate polymethylsulfate dextrin dissolved in sterile water up to a dose of 2 g/kg body weight.

## polysulfate polymethylsulfate dextrin
[1]; 0.32 μM
  MEAN P24 value: 664.0 pg/mL
  % VIRAL CONCENTRATION: 96.1%
  P24 value as measurement of HIV concentration: 672.3 pg/mL and 654.6 pg/mL and 665.0 pg/mL
[1]; 1.0 μM
  MEAN P24 value: 371.5 pg/mL
  % VIRAL CONCENTRATION: 53.7%
  P24 value as measurement of HIV concentration: 407.1 pg/mL and 351.2 pg/mL and 356.1 pg/mL
[1]; 3.2 μM
  MEAN P24 value: 5.5 pg/mL
  % VIRAL CONCENTRATION: 0.8%
[1]; 10 μM
  MEAN P24 value: -6.1 pg/mL
  % VIRAL CONCENTRATION: −0.9%
[1]; 32 μM
  MEAN P24 value: -8.8 pg/mL
  % VIRAL CONCENTRATION: −1.3%
[1]; 100 μM
  MEAN P24 value: -27 pg/mL
  % VIRAL CONCENTRATION: −3.9%
[1]; average of three separate tests, p24 production, cell-to-cell transmission of HIV, read-out: calculated 50% inhibition (IC50) / average inhibitory concentration 50%
  IC50: 1.16 µM
Sprague-Dawley rats
  toxic effects after oral administration: No toxic effects

— patent publication US7902174B2, “Antiviral composition” (priority 2009, dated 2011)
